Data: PubChem BioAssay AID1963958 (Molecular Pharmacology Branch, DTP, NCI, 2024)

System: MDA-MB-231 multicell spheroids, viability
Experiment: Anticancer human tumor MDA-MB-231 cell line growth inhibition [PI3K];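 further: spheroids exposed to agents for seven days before reading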;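 on viability, T/C: percent of vehicle control luminescence with DMSO treated spheroids as 100%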
Details: for IC50: curve of first compound; for viability, T/C: stronger effect = lower value; active means viability on the fitted dose curve at most 10% of control; inactive means the rest
In short: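 Tumor cells were combined with HUVEC and MSCs into spheroids, then dosed with PI3K-inhibitor combinations over half-log ranges capped near clinical Cmax or 10 microM.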

[1] = second compound 0.0316 µM, first compound 0.0316 µM
[2] = second compound 0.0316 µM, first compound 0.1 µM
[3] = second compound 0.0316 µM, first compound 0.316 µM
[4] = second compound 0.0316 µM, first compound 1 µM
[5] = second compound 0.0316 µM, first compound 3.16 µM
[6] = second compound 0.0316 µM, first compound 10 µM
[7] = second compound 0.1 µM, first compound 0.0316 µM
[8] = second compound 0.1 µM, first compound 0.1 µM
[9] = second compound 0.1 µM, first compound 0.316 µM
[10] = second compound 0.1 µM, first compound 1 µM
[11] = second compound 0.1 µM, first compound 3.16 µM
[12] = second compound 0.1 µM, first compound 10 µM
[13] = second compound 0.316 µM, first compound 0.0316 µM
[14] = second compound 0.316 µM, first compound 0.1 µM
[15] = second compound 0.316 µM, first compound 0.316 µM
[16] = second compound 0.316 µM, first compound 1 µM
[17] = second compound 0.316 µM, first compound 3.16 µM
[18] = second compound 0.316 µM, first compound 10 µM
[19] = second compound 1 µM, first compound 0.0316 µM
[20] = second compound 1 µM, first compound 0.1 µM
[21] = second compound 1 µM, first compound 0.316 µM
[22] = second compound 1 µM, first compound 1 µM
[23] = second compound 1 µM, first compound 3.16 µM
[24] = second compound 1 µM, first compound 10 µM
[25] = second compound 3.16 µM, first compound 0.0316 µM
[26] = second compound 3.16 µM, first compound 0.1 µM
[27] = second compound 3.16 µM, first compound 0.316 µM
[28] = second compound 3.16 µM, first compound 1 µM
[29] = second compound 3.16 µM, first compound 3.16 µM
[30] = second compound 3.16 µM, first compound 10 µM
[31] = second compound 10 µM, first compound 0.0316 µM
[32] = second compound 10 µM, first compound 0.1 µM
[33] = second compound 10 µM, first compound 0.316 µM
[34] = second compound 10 µM, first compound 1 µM
[35] = second compound 10 µM, first compound 3.16 µM
[36] = second compound 10 µM, first compound 10 µM

CC(Cn1ccc(-c2ccc(C#N)c(Cl)c2)n1)NC(=O)c1cc(C(C)O)[nH]n1 (centres undefined) + Cc1nc(NC(=O)N2CCCC2C(N)=O)sc1-c1ccnc(C(C)(C)C(F)(F)F)c1
> 10000 nM: IC50 (second compound 0.0316 µM) | IC50 (second compound 0.1 µM) | IC50 (second compound 0.316 µM) | IC50 (second compound 1 µM) | IC50 (second compound 3.16 µM) | IC50 (second compound 10 µM)
inactive: viability, T/C [1] 92.9% | viability, T/C [2] 88.3% | viability, T/C [3] 98.9% | viability, T/C [4] 93.5% | viability, T/C [5] 86.4% | viability, T/C [6] 83.3% | viability, T/C [7] 86.8% | viability, T/C [8] 78.8% | viability, T/C [9] 87% | viability, T/C [10] 89.3% | viability, T/C [11] 86.2% | viability, T/C [12] 74.5% | viability, T/C [13] 73.2% | viability, T/C [14] 71.6% | viability, T/C [15] 77.4% | viability, T/C [16] 72.5% | viability, T/C [17] 68.2% | viability, T/C [18] 64.8% | viability, T/C [19] 68.6% | viability, T/C [20] 70.9% | viability, T/C [21] 67.1% | viability, T/C [22] 72.3% | viability, T/C [23] 66.6% | viability, T/C [24] 59.8% | viability, T/C [25] 68.4% | viability, T/C [26] 67.3% | viability, T/C [27] 68.7% | viability, T/C [28] 64.6% | viability, T/C [29] 61.9% | viability, T/C [30] 56.6% | viability, T/C [31] 68.3% | viability, T/C [32] 58% | viability, T/C [33] 60.3% | viability, T/C [34] 64.2% | viability, T/C [35] 62.8% | viability, T/C [36] 49.8%

CC1(C)CCC(Nc2ncc(C(F)(F)F)c(-c3c[nH]c4c(P(C)(C)=O)c(C#N)ccc34)n2)CN1 (centres undefined) + Cc1nc(NC(=O)N2CCCC2C(N)=O)sc1-c1ccnc(C(C)(C)C(F)(F)F)c1
31.6 nM: IC50 (second compound 0.0316 µM) | IC50 (second compound 0.1 µM)
< 31.6 nM: IC50 (second compound 0.316 µM) | IC50 (second compound 1 µM) | IC50 (second compound 3.16 µM) | IC50 (second compound 10 µM)
active: viability, T/C [6] 4.85% | viability, T/C [12] 5.6% | viability, T/C [18] 3.95% | viability, T/C [24] 3.6% | viability, T/C [30] 4.49% | viability, T/C [36] 3.35%
inactive: viability, T/C [1] 47.6% | viability, T/C [2] 42.8% | viability, T/C [3] 47.6% | viability, T/C [4] 51.2% | viability, T/C [5] 54.6% | viability, T/C [7] 48.5% | viability, T/C [8] 44.1% | viability, T/C [9] 45.2% | viability, T/C [10] 49.9% | viability, T/C [11] 52.5% | viability, T/C [13] 44.5% | viability, T/C [14] 42.7% | viability, T/C [15] 44.7% | viability, T/C [16] 45.5% | viability, T/C [17] 47.5% | viability, T/C [19] 43.4% | viability, T/C [20] 43.8% | viability, T/C [21] 43.9% | viability, T/C [22] 45.4% | viability, T/C [23] 44.8% | viability, T/C [25] 43.5% | viability, T/C [26] 44% | viability, T/C [27] 42.5% | viability, T/C [28] 42.6% | viability, T/C [29] 40.4% | viability, T/C [31] 41.7% | viability, T/C [32] 43.4% | viability, T/C [33] 40.5% | viability, T/C [34] 40.3% | viability, T/C [35] 38.1%
